{"source": "patent US20240150356A1", "about": "“Pyrimidine amide compounds and use thereof” (ALPHALA CO., LTD., priority 2019, published 2024)"}
{"test_system": "Hep3B cells (hepatocellular carcinoma cell line)", "test": "In vitro MTS cell viability assay (NCI-60 methodology), Hep3B", "type": "cell-based", "details": "Homo sapiens, 48 h, Table 1, MTS, 2 days drug incubation, 50% reduction vs time zero, read-out: Hep3B LC50", "experimental": "(§1) The cell viability measurement is based on the NCI-60 screening methodology (Nat. Rev. Cancer 6, 813-823, 2006). Briefly, cells are inoculated into 96-well plates at the optimal plating density. After 24 h, one of the two plates for Hep3B cell line is processed to determine a time zero cell viability (Tz) by MTS assay (Promega). Compounds are added over a 2-fold serial dilution to provide a total five drug concentrations plus DMSO control. Plates are incubated for a further 2 days, then measured cell viability by MTS assay [control growth (C) and test growth in the presence of drug at the five concentration levels (Ti)]. The LC50 is calculated from [(Ti−Tz)/Tz]×100=−50, which is the drug concentration resulting in a 50% reduction at the end of the drug treatment as compared to that at the beginning.\n(§2) The compounds prepared in Tables 1-10 were tested in three in vitro assays, and the results are shown in Tables 1-10 for Hep3B and Table 11 for SW480 and NCI-H460 shown below. Herein, Hep3B refers to hepatocellular carcinoma cell line, SW480 refers to colon adenocarcinoma cell line, and NCI-H460 refers to human lung cancer cell line.\n(§3) Shown in following Tables 1 to 10 are the structures and in vitro activities of exemplary compounds of formula (I).", "units": {"LC50": "nM"}}
{"smiles": "Cn1ncc2c(NC(=O)c3ccc([N+](=O)[O-])s3)nc(C#Cc3ccc(C(F)(F)F)cc3)nc21", "note": "[Compound 1-13, N-(1-methyl-6-((4-(trifluoromethyl)phenyl)ethynyl)-1H-pyrazolo[3,4-d]pyrimidin-4-yl)-5-nitrothiophene-2-carboxamide]", "LC50": 2030}
{"smiles": "CC(C)n1ncc2c(NC(=O)c3ccc([N+](=O)[O-])s3)nc(-c3ccc(C(F)(F)F)cc3)nc21", "note": "[Compound 1-24, N-(1-isopropyl-6-(4-(trifluoromethyl)phenyl)-1H-pyrazolo[3,4-d]pyrimidin-4-yl)-5-nitrothiophene-2-carboxamide]", "LC50": 900}
{"smiles": "CC(C)n1ncc2c(NC(=O)c3ccc([N+](=O)[O-])s3)nc(-c3ccc(C(C)(C)C)cc3)nc21", "note": "[Compound 1-23, N-(6-(4-(tert-butyl)phenyl)-1-isopropyl-1H-pyrazolo[3,4-d]pyrimidin-4-yl)-5-nitrothiophene-2-carboxamide]", "LC50": 1570}
{"test_system": "Hep3B cells (hepatocellular carcinoma cell line)", "test": "In vitro MTS cell viability assay (NCI-60 methodology), Hep3B", "type": "cell-based", "details": "Homo sapiens, 48 h, Table 4, MTS, 2 days drug incubation, 50% reduction vs time zero, read-out: Hep3B LC50", "experimental": "as §1, §2, §3", "units": {"LC50": "nM"}}
{"smiles": "Cc1csc2c(NC(=O)c3ccc([N+](=O)[O-])s3)nc(-c3ccc(F)cc3)nc12", "note": "[Compound 4-8]", "LC50": 1700}
{"test_system": "Hep3B cells (hepatocellular carcinoma cell line)", "test": "In vitro MTS cell viability assay (NCI-60 methodology), Hep3B", "type": "cell-based", "details": "Homo sapiens, 48 h, Table 5, MTS, 2 days drug incubation, 50% reduction vs time zero, read-out: Hep3B LC50", "experimental": "as §1, §2, §3", "units": {"LC50": "nM"}}
{"smiles": "COCCOc1ccc(-c2nc(NC(=O)c3ccc([N+](=O)[O-])s3)c3cnn(-c4ccccc4)c3n2)cn1", "note": "[Compound 5-54, N-(6-(6(2-methoxyethoxy)pyridin-3-yl)-1-phenyl-1H-pyrazolo[3,4-d]pyrimidin-4-yl)-5-nitrothiophene-2-carboxamide]", "LC50": 340}
{"smiles": "O=C(Nc1nc(-c2ccccc2)nc2c1cnn2-c1ccccc1)c1ccc([N+](=O)[O-])s1", "note": "[Compound 5-23, N-(1,6-diphenyl-1H-pyrazolo[3,4-d]pyrimidin-4-yl)-5-nitrothiophene-2-carboxamide]", "LC50": 430}
{"smiles": "CCOCCOCCOc1nc(NC(=O)c2ccc([N+](=O)[O-])s2)c2cnn(-c3ccccc3)c2n1", "note": "[Compound 5-10, N-(6-(2-(2-ethoxyethoxy)ethoxy)-1-phenyl-1H-pyrazolo[3,4-d]pyrimidin-4-yl)-5-nitrothiophene-2-carboxamide]", "LC50": "> 5000"}
{"smiles": "O=C(Nc1nc(NS(=O)(=O)c2ccc(Cl)cc2)nc2c1cnn2-c1ccccc1)c1ccc([N+](=O)[O-])s1", "note": "[Compound 5-9, N-(6-((4-chlorophenyl)sulfonamido)-1-phenyl-1H-pyrazolo[3,4-d]pyrimidin-4-yl)-5-nitrothiophene-2-carboxamide]", "LC50": "> 6000"}
{"smiles": "O=C(Nc1nc(-n2ccc(C(F)(F)F)n2)nc2c1cnn2-c1ccccc1)c1ccc([N+](=O)[O-])s1", "note": "[Compound 5-22, 5-nitro-N-(1-phenyl-6-(3-(trifluoromethyl)-1H-pyrazol-1-yl)-1H-pyrazolo[3,4-d]pyrimidin-4-yl)thiophene-2-carboxamide]", "LC50": 380}
{"test_system": "Hep3B cells (hepatocellular carcinoma cell line)", "test": "In vitro MTS cell viability assay (NCI-60 methodology), Hep3B", "type": "cell-based", "details": "Homo sapiens, 48 h, Table 6, MTS, 2 days drug incubation, 50% reduction vs time zero, read-out: Hep3B LC50", "experimental": "as §1, §2, §3", "units": {"LC50": "nM"}}
{"smiles": "Cc1ccn(-c2nc(NC(=O)c3ccc([N+](=O)[O-])s3)c3cnn(-c4ccc(Cl)cc4)c3n2)n1", "note": "[Compound 6-46, N-(1-(4-chlorophenyl)-6-(3-methyl-1H-pyrazol-1-yl)-1H-pyrazolo[3,4-d]pyrimidin-4-yl)-5-nitrothiophene-2-carboxamide]", "LC50": 160}
{"smiles": "COCCOc1ccc(-c2nc(NC(=O)c3ccc([N+](=O)[O-])s3)c3cnn(-c4ccc(F)cc4)c3n2)c(F)c1", "note": "[Compound 6-138, N-(6-(2-fluoro-4-(2-methoxyethoxy)phenyl)-1-(4-fluorophenyl)-1H-pyrazolo[3,4,d]pyrimidin-4-yl)-5-nitrothiophene-2-carboxamide]", "LC50": "> 1250"}
{"smiles": "CC1CCC(c2nc(NC(=O)c3ccc([N+](=O)[O-])s3)c3cnn(-c4ccc(F)cc4)c3n2)CC1", "note": "(stereo not shown) [Compound 6-143, N-(1-(4-fluorophenyl)-6-(4-methylcyclohexyl)-1H-pyrazolo[3,4-d]pyrimidin-4-yl)-5-nitrothiophene-2-carboxamide]", "LC50": 1020}
{"smiles": "O=C(Nc1nc(-c2ccc(OCCO)nc2)nc2c1cnn2-c1ccc(F)cc1)c1ccc([N+](=O)[O-])s1", "note": "[Compound 6-134, N-(1-(4-fluorophenyl)-6-(6-(2-hydroxyethoxy)pyridin-3-yl)-1H-pyrazolo[3,4,d]pyrimidin-4-yl)-5-nitrothiophene-2-carboxamide]", "LC50": 220}
{"smiles": "COc1ccc(-n2ncc3c(NC(=O)c4ccc([N+](=O)[O-])s4)nc(-c4ccc(Cl)cc4F)nc32)cc1", "note": "[Compound 6-22, N-(6-(4-chloro-2-fluorophenyl)-1-(4-methoxyphenyl)-1H-pyrazolo[3,4-d]pyrimidin-4-yl)-5-nitrothiophene-2-carboxamide]", "LC50": 380}
{"smiles": "COc1ccc(-n2ncc3c(NC(=O)c4ccc([N+](=O)[O-])s4)nc(C4=CCC(C)(C)CC4)nc32)cc1", "note": "[Compound 6-29, N-(6-(4,4-dimethylcyclohex-1-en-1-yl)-1-(4-methoxyphenyl)-1H-pyrazolo[3,4-d]pyrimidin-4-yl)-5-nitrothiophene-2-carboxamide]", "LC50": 820}
{"smiles": "COC[C@@H]1CCCN1c1nc(NC(=O)c2ccc([N+](=O)[O-])s2)c2cnn(-c3ccc(F)cc3)c2n1", "note": "[Compound 6-103, (S)—N-(1-(4-fluorophenyl)-6-(2-(methoxymethyl)pyrrolidin-1-yl)-1H-pyrazolo[3,4-d]pyrimidin-4-yl)-5-nitrothiophene-2-carboxamide]", "LC50": 780}
{"smiles": "CC(C)(C)c1ccc(-n2ncc3c(NC(=O)c4ccc([N+](=O)[O-])s4)nc(-c4cccc(F)c4)nc32)cc1", "note": "[Compound 6-80, N-(1-(4-(tert-butyl)phenyl)-6-(3-fluorophenyl)-1H-pyrazolo[3,4-d]pyrimidin-4-yl)-5-nitrothiophene-2-carboxamide]", "LC50": 780}
{"test_system": "Hep3B cells (hepatocellular carcinoma cell line)", "test": "In vitro MTS cell viability assay (NCI-60 methodology), Hep3B", "type": "cell-based", "details": "Homo sapiens, 48 h, Table 7, MTS, 2 days drug incubation, 50% reduction vs time zero, read-out: Hep3B LC50", "experimental": "as §1, §2, §3", "units": {"LC50": "nM"}}
{"smiles": "O=C(Nc1nc(-c2ccc(C(F)(F)F)cc2)nc2c1cnn2-c1ccc(C(F)(F)F)cn1)c1ccc([N+](=O)[O-])s1", "note": "[Compound 7-4, 5-nitro-N-(6-(4-(trifluoromethyl)phenyl)-1-(5-(trifluoromethyl)pyridin-2-yl)-1H-pyrazolo[3,4-d]pyrimidin-4-yl)thiophene-2-carboxamide]", "LC50": 220}
{"smiles": "Cc1ccc(-c2nc(NC(=O)c3ccc([N+](=O)[O-])s3)c3cnn(Cc4ccccc4)c3n2)cn1", "note": "[Compound 7-17, N-(1-benzyl-6-(6-methylpyridin-3-yl)-1H-pyrazolo[3,4-d]pyrimidin-4-yl)-5-nitrothiophene-2-carboxamide]", "LC50": "> 1250"}
{"smiles": "O=C(Nc1nc(-c2ccc(Cl)nc2)nc2c1cnn2Cc1ccccc1)c1ccc([N+](=O)[O-])s1", "note": "[Compound 7-15, N-(1-benzyl-6-(6-chloropyridin-3-yl)-1H-pyrazolo[3,4-d]pyrimidin-4-yl)-5-nitrothiophene-2-carboxamide]", "LC50": 1200}
{"test_system": "Hep3B cells (hepatocellular carcinoma cell line)", "test": "In vitro MTS cell viability assay (NCI-60 methodology), Hep3B", "type": "cell-based", "details": "Homo sapiens, 48 h, Table 8, MTS, 2 days drug incubation, 50% reduction vs time zero, read-out: Hep3B LC50", "experimental": "as §1, §2, §3", "units": {"LC50": "nM"}}
{"smiles": "O=C(Nc1nc(-c2ccc(Cl)cc2)nc2c1cnn2C1CCCC1)c1ccc([N+](=O)[O-])s1", "note": "[Compound 8-9, N-(6-(4-chlorophenyl)-1-cyclopentyl-1H-pyrazolo[3,4-d]pyrimidin-4-yl)-5-nitrothiophene-2-carboxamide]", "LC50": 940}
{"test_system": "Hep3B cells (hepatocellular carcinoma cell line)", "test": "In vitro MTS cell viability assay (NCI-60 methodology), Hep3B", "type": "cell-based", "details": "Homo sapiens, 48 h, Table 9, MTS, 2 days drug incubation, 50% reduction vs time zero, read-out: Hep3B LC50", "experimental": "as §1, §2, §3", "units": {"LC50": "nM"}}
{"smiles": "CCOCCOC(=O)N1CCC(n2ncc3c(NC(=O)c4ccc([N+](=O)[O-])s4)nc(-c4ccc(Cl)cc4)nc32)CC1", "note": "[Compound 9-13, 2-ethoxyethyl 4-(6-(4-chlorophenyl)-4-(5-nitrothiophene-2-carboxamido)-1H-pyrazolo [3,4-d]pyrimidin-1-yl)piperidine-1-carboxylate]", "LC50": 1620}
{"smiles": "CC(C)N1CCC(n2ncc3c(NC(=O)c4ccc([N+](=O)[O-])s4)nc(-c4ccc(F)nc4)nc32)CC1", "note": "[Compound 9-1]", "LC50": 1250}
{"test_system": "Hep3B cells (hepatocellular carcinoma cell line)", "test": "In vitro MTS cell viability assay (NCI-60 methodology), Hep3B", "type": "cell-based", "details": "Homo sapiens, 48 h, Table 10, MTS, 2 days drug incubation, 50% reduction vs time zero, read-out: Hep3B LC50", "experimental": "as §1, §2, §3", "units": {"LC50": "nM"}}
{"smiles": "O=C(Nc1nc(-c2ccc(Cl)c(Cl)c2)nc2c1cnn2C1CCCCC1)c1ccc([N+](=O)[O-])s1", "note": "[Compound 10-43, N-(1-cyclohexyl-6-(3,4-dichlorophenyl)-1H-pyrazolo[3,4,d]pyrimidin-4-yl)-5-nitrothiophene-2-carboxamide]", "LC50": 770}
{"smiles": "O=C(Nc1nc(-c2cc(Cl)ccc2F)nc2c1cnn2C1CCCCC1)c1ccc([N+](=O)[O-])s1", "note": "[Compound 10-47, N-(6-(5-chloro-2-fluorophenyl)-1-cyclohexyl-1H-pyrazolo[3,4-d]pyrimidin-4-yl)-5-nitrothiophene-2-carboxamide]", "LC50": 630}
{"smiles": "COCc1ccc(-c2nc(NC(=O)c3ccc([N+](=O)[O-])s3)c3cnn(C4CCCCC4)c3n2)cc1", "note": "[Compound 10-30, N-(1-cyclohexyl-6-(4-(methoxymethyl)phenyl)-1H-pyrazolo[3,4-d]pyrimidin-4-yl)-5-nitrothiophene-2-carboxamide]", "LC50": 840}
{"smiles": "O=C(Nc1nc(-c2ccc3c(c2)OCO3)nc2c1cnn2C1CCCCC1)c1ccc([N+](=O)[O-])s1", "note": "[Compound 10-36, N-(6-(benzo[d][1,3]dioxol-5-yl)-1-cyclohexyl-1H-pyrazolo[3,4-d]pyrimidin-4-yl)-5-nitrothiophene-2-carboxamide]", "LC50": 2120}
{"smiles": "CC1(C)CCC(n2ncc3c(NC(=O)c4ccc([N+](=O)[O-])s4)nc(-c4ccc(Cl)cc4)nc32)CC1", "note": "[Compound 10-63, N-(6(4-chlorophenyl)-1-(4,4-dimethylcyclohexyl)-1H-pyrazolo[3,4-d]pyrimidin-4-yl)-5-nitrothiophene-2-carboxamide]", "LC50": 860}
